In patent publication US11046657B2, “Pyrimidinone derivatives and uses thereof to neutralize the biological activity of chemokines” (Centre National de la Recherche Scientifique (CNRS), priority 2016, dated 2021):
Structures can show the parent of a compound that is named as a salt.

Test system: not given
Test: not given
Conditions: not given

First: COc1cc(-c2cc(-c3ccc(N4CCNCC4)cc3)nc(=O)[nH]2)ccc1O.Cl
Second: COc1cc(-c2cc(-c3ccc(N4CCN(C)CC4)cc3)nc(=O)[nH]2)ccc1O (as salt: hydrochloride)
The melting point of the first is lower: 117 to 124 °C for the first, 300 to 303 °C for the second.

First: Cl.NCCOc1cc(-c2cc(-c3ccc(Cl)cc3)nc(=O)[nH]2)ccc1O
Second: COc1cc(-c2cc(-c3ccc(Cl)cc3)nc(=O)[nH]2)ccc1C(=O)O [(27), 4-(6-(4-chlorophenyl)-2-oxo-2,3-dihydropyrimidin-4-yl)-2-methoxybenzoic Acid]
The melting point of the first is higher: 272 to 276 °C for the first, 257 to 261 °C for the second.

Work on `COc1cc(-c2cc(-c3ccc(N(C)C)nc3)nc(=O)[nH]2)ccc1O.Cl` yielded a melting point of 257 to 260 °C.

Biological target: T1, CXCR4-CXCL12 binding (Homo sapiens, UniProt P48061)
T1 construct: expressed in transfected cells
Test: Inhibition of CXCL12-TR binding to CXCR4-GFP (FRET)
Conditions: 10 μM; Table 2
Method: Study of the changes of CXCR4-CXCL12 binding was achieved by the energy transfer technique^10,11.
Binding of Texas red-labelled CXCL12 with CXCR4-GFP fused receptor^11 induces fluorescence resonance energy transfer (FRET), which can be monitored by the reduction of GFP fluorescence emission. The characterization of CXCL12 neutraligands was evaluated in two conditions, differing by the sequence of addition of molecules. Reduction of GFP fluorescence emission was more important when neutraligands were preincubated (30 min) […] prior to the addition to cells.
The CXCR4 antagonist, T134 (20 μM) was used as a control in both incubation protocols. Data obtained were consistent with a binding to the chemokine and not to its receptor. Consequently, all selected compounds are indeed CXCL12 chemokine neutraligands and behave as chalcone-4. The neutralizing properties of the compounds are thus confirmed.

T1 sequence (P48061 22-89 limits assumed): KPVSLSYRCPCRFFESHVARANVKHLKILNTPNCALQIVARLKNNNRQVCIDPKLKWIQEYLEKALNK

First: COc1ccc(-c2cc(-c3ccc(O)c(OC)c3)[nH]c(=O)n2)cc1 [(2), 4-(4-methoxyphenyl)-6-(4-hydroxy-3-methoxyphenyl)-pyrimidin-2(1H)-one]
Second: COc1cc(-c2cc(-c3ccc(O)cc3)nc(=O)[nH]2)ccc1O [(3), 4-(4-hydroxyphenyl)-6-(4-hydroxy-3-methoxyphenyl)-pyrimidin-2(1H)-one]
The inhibition at 10 µM of the first is higher: 96 ± 3% for the first, 53 ± 6% for the second.

Going from `COc1cc(-c2cc(-c3ccc(C(C)C)cc3)nc(=O)[nH]2)ccc1O` [(4), 4-(4-isopropylphenyl)-6-(4-hydroxy-3-methoxyphenyl)-pyrimidin-2(1H)-one] to `COc1cc(-c2cc(-c3ccc(F)cc3)nc(=O)[nH]2)ccc1O` [(5), 4-(4-fluorophenyl)-6-(4-hydroxy-3-methoxyphenyl)pyrimidin-2(1H)-one], the inhibition at 10 µM rises from 35 ± 4% to 46 ± 4%.

Compared with `COc1cc(-c2cc(-c3ccccc3Cl)nc(=O)[nH]2)ccc1O` [(7), 4-(2-chlorophenyl)-6-(4-hydroxy-3-methoxyphenyl)pyrimidin-2(11H)-one], `COc1cc(-c2cc(-c3ccccc3)nc(=O)[nH]2)ccc1O` [(8), 4-(phenyl)-6-(4-hydroxy-3-methoxyphenyl)-pyrimidin-2(1H)-one] is lower in inhibition at 10 µM: 62 ± 5% for the first, 46 ± 8% for the second.

`O=c1nc(-c2ccc(Cl)cc2)cc(-c2ccc(O)c(OC(F)(F)F)c2)[nH]1` [(9), 4-(4-chlorophenyl)-6-(4-hydroxy-3-(trifluoromethoxy)phenyl)pyrimidin-2(1H)-one] and `COc1ccc(-c2cc(-c3ccc(Cl)cc3)nc(=O)[nH]2)cc1O` [(10), 4-(4-chlorophenyl)-6-(3-hydroxy-4-methoxyphenyl)pyrimidin-2(1H)-one] are within error of each other in inhibition at 10 µM: 52 ± 10% for the first, 39 ± 7% for the second.

Going from `O=c1nc(-c2ccc(Cl)cc2)cc(-c2ccc(O)cc2)[nH]1` [compound (A), 4-(4-chlorophenyl)-6-(4-hydroxyphenyl)pyrimidin-2(1H)-one, reference compound] to `O=c1nc(-c2ccc(Cl)cc2)cc(-c2ccccc2)[nH]1` [compound (B), 4-(4-chlorophenyl)-6-phenylpyrimidin-2(1H)-one, reference compound], the inhibition at 10 µM rises from 4.3 ± 3% to 19 ± 7%.

With `COc1cccc(-c2cc(-c3ccc(Cl)cc3)nc(=O)[nH]2)c1` [compound (C), 4-(4-chlorophenyl)-6-(3-methoxyphenyl)pyrimidin-2(1H)-one, reference compound] the inhibition at 10 µM was 10 ± 5%.

Same assay, conditions: 10 μM; Table 3

Going from `COc1cc(-c2cc(-c3ccc(O)c(C)c3)nc(=O)[nH]2)ccc1O` [(59)] to `COc1ccc(-c2cc(-c3ccc(O)c(C)c3)nc(=O)[nH]2)cc1OC` [(E), 4-(4-hydroxy-3-methylphenyl)-6-(4-methoxy-3-methoxyphenyl)pyrimidin-2(1H)-one, reference compound], the inhibition at 10 µM falls from 83 ± 2% to 1.8 ± 0.7%.

For `COc1ccc(-c2cc(-c3ccc(Cl)cc3)nc(=O)[nH]2)cc1OC` [(D), 4-(4-chlorophenyl)-6-(4-methoxy-3-methoxyphenyl)pyrimidin-2(1H)-one, reference compound], the inhibition at 10 µM was 26 ± 1%.

Same assay, conditions: 10 μM; Table 4

`COc1cc(-c2cc(-c3ccco3)nc(=O)[nH]2)ccc1O` [(28), 4-(furan-2-yl)-6-(4-hydroxy-3-methoxyphenyl)pyrimidin-2(1H)-one] and `COc1cc(-c2cc(-c3ccc[nH]3)nc(=O)[nH]2)ccc1O` [(60)] are within error of each other in inhibition at 10 µM: 44 ± 1% for the first, 53 ± 14% for the second.

`COc1cc(-c2cc(-c3ccc(Cl)s3)nc(=O)[nH]2)ccc1O` [(33), 4-(5-chlorothiophen-2-yl)-6-(4-hydroxy-3-methoxyphenyl)pyrimidin-2(1H)-one] gave an inhibition at 10 µM of 58 ± 15%.

Same assay, conditions: deduced from comparative examples

For `O=c1nc(-c2ccc(Cl)cc2)cc(-c2ccc(O)cc2)[nH]1` [compound (A), 4-(4-chlorophenyl)-6-(4-hydroxyphenyl)pyrimidin-2(1H)-one, reference compound], the “Affinity for CXCL12 (SAR)” value was “loss of affinity”.
In the case of `COc1cccc(-c2cc(-c3ccc(Cl)cc3)nc(=O)[nH]2)c1` [compound (C), 4-(4-chlorophenyl)-6-(3-methoxyphenyl)pyrimidin-2(1H)-one, reference compound], the “Affinity for CXCL12 (SAR)” value is reported as “loss of affinity”.
